Measurements: patent US11759455B2, “Substituted 1H-imidazo[4,5-b]pyridin-2(3H)-ones and their use as GLUN2B receptor modulators” (JANSSEN PHARMACEUTICA NV, priority 2016, dated 2023)
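Also: stable Tet-On inducible cell line, Ca2+ influx triggered by glutamate at about EC40 plus 10 µM glycine, fluorescent dye read-out over 5 min, normalized to control wells.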

What follows are molecules tested against T1, human GluN1/GluN2B NMDA receptors (Homo sapiens, UniProt Q13224) (assay: Cell-based calcium flux (FLIPR) assay on cloned human NR1/NR2B ion channels expressed in mammalian cells (standard and HTS buffer variants)). Settings: standard assay buffer (0.5 mM MgCl2 in dye loading buffer; 137 mM NaCl, 4 mM KCl in assay buffer), human GluN1/GluN2B, read-out: NR2B IC50 (μM) standard assay.
T1 construct: expressed in transfected cells
T1 sequence (Q13224 27-1484, other chains not shown): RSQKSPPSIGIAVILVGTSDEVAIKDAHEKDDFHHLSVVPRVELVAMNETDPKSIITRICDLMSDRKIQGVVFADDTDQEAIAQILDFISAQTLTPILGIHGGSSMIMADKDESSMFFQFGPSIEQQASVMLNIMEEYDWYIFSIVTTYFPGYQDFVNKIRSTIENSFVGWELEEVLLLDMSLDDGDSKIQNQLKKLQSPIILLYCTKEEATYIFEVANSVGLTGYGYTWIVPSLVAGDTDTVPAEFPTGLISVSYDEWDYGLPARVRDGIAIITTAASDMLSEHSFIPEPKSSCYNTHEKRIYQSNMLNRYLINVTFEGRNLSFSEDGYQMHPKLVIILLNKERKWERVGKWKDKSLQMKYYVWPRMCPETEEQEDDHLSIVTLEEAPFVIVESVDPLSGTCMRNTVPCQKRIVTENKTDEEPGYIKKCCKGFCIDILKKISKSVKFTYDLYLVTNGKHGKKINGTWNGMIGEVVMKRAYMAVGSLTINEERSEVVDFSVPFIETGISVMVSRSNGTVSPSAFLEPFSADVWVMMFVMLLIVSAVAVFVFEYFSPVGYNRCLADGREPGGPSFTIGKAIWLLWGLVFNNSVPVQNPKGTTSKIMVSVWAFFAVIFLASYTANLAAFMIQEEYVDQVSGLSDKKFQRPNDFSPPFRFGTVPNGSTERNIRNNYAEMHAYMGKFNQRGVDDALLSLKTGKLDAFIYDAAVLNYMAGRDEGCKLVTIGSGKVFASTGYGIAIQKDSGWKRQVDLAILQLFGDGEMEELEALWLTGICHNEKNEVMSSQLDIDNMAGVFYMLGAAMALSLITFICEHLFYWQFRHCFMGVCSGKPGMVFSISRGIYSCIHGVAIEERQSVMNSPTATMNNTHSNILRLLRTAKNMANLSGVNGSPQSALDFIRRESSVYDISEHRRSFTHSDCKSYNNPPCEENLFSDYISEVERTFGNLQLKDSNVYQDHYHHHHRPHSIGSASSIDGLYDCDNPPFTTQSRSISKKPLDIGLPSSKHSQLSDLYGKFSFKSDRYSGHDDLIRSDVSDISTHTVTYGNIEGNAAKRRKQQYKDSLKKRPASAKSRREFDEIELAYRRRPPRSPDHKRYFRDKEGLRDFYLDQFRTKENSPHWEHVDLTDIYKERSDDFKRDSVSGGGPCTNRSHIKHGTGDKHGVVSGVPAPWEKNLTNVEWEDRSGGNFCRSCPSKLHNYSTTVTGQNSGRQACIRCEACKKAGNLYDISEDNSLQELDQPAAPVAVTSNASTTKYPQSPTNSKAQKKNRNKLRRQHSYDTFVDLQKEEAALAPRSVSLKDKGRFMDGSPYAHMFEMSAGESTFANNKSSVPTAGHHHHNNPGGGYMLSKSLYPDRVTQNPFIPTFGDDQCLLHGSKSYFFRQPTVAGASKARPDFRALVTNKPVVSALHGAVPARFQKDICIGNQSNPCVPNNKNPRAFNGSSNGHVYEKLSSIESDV
With `Cn1c(=O)n(CC(=O)N2CC(F)(F)C2)c2cc(-c3ccc(F)c(F)c3)cnc21` [Example 416, 1-[2-(3,3-Difluoroazetidin-1-yl)-2-oxo-ethyl]-6-(3,4-difluorophenyl)-3-methyl-imidazo[4,5-b]pyridin-2-one] the IC50 was 0.01 µM.
For `Cn1c(=O)n(CC(=O)N2CC(F)(F)C2)c2cc(-c3cccc(F)c3)cnc21` [Example 417, 1-[2-(3,3-Difluoroazetidin-1-yl)-2-oxo-ethyl]-6-(3-fluorophenyl)-3-methyl-imidazo[4,5-b]pyridin-2-one], the IC50 was 0.031 µM.
With `Cc1cccc(-c2cnc3c(c2)n(CC(=O)N2CC(F)(F)C2)c(=O)n3C)c1F` [Example 418, 1-[2-(3,3-Difluoroazetidin-1-yl)-2-oxo-ethyl]-6-(2-fluoro-3-methyl-phenyl)-3-methyl-imidazo[4,5-b]pyridin-2-one] the IC50 was 0.019 µM.
`CN(C)C(=O)Cn1c(=O)n(C)c2ncc(-c3cccc(C(F)(F)F)c3)cc21` [Example 419, N,N-Dimethyl-2-[3-methyl-2-oxo-6-[3-(trifluoromethyl)phenyl]imidazo[4,5-b]pyridin-1-yl]acetamide] showed an IC50 of 0.047 µM.
For `Cc1cc(-c2cnc3c(c2)n(CC(=O)N(C)C)c(=O)n3C)ccc1F` [Example 420, 2-[6-(4-Fuoro-3-methyl-phenyl)-3-methyl-2-oxo-imidazo[4,5-b]pyridin-1-yl]-N,N-dimethyl-acetamide], the IC50 was 0.017 µM.
With `CN(C)C(=O)Cn1c(=O)n(C)c2ncc(-c3ccc(F)c(F)c3)cc21` [Example 421, 2-[6-(3,4-Difluorophenyl)-3-methyl-2-oxo-imidazo[4,5-b]pyridin-1-yl]-N,N-dimethyl-acetamide] the IC50 was 0.053 µM.
`Cn1c(=O)n(CC(=O)N2CCC2)c2cc(-c3ccc(F)c(F)c3)cnc21` [Example 422, 1-[2-(Azetidin-1-yl)-2-oxo-ethyl]-6-(3,4-difluorophenyl)-3-methyl-imidazo[4,5-b]pyridin-2-one] was tested, and the IC50 was 0.01 µM.
Work on `Cc1c(F)ccc(-c2cnc3c(c2)n(CC(=O)N(C)C)c(=O)n3C)c1F` [Example 423, 2-[6-(2,4-Difluoro-3-methyl-phenyl)-3-methyl-2-oxo-imidazo[4,5-b]pyridin-1-yl]-N,N-dimethyl-acetamide] yielded an IC50 of 0.006 µM.
For `CN(C)C(=O)Cn1c(=O)n(C)c2ncc(-c3cccc(C(F)(F)F)c3F)cc21` [Example 424, 2-[6-[2-Fluoro-3-(trifluoromethyl)phenyl]-3-methyl-2-oxo-imidazo[4,5-b]pyridin-1-yl]-N,N-dimethyl-acetamide], the IC50 was 0.028 µM.
`CN(C)C(=O)Cn1c(=O)n(C)c2ncc(-c3cccc(F)c3F)cc21` [Example 425, 2-[6-(2,3-Difluorophenyl)-3-methyl-2-oxo-imidazo[4,5-b]pyridin-1-yl]-N,N-dimethyl-acetamide] showed an IC50 of 0.408 µM.
For `CN(C)C(=O)Cn1c(=O)n(C)c2ncc(-c3cccc(C(F)F)c3)cc21` [Example 426, 2-[6-[3-(Difluoromethyl)phenyl]-3-methyl-2-oxo-imidazo[4,5-b]pyridin-1-yl]-N,N-dimethyl-acetamide], the IC50 was 0.019 µM.
For `Cc1cccc(-c2cnc3c(c2)n(CC(=O)N(C)C)c(=O)n3C)c1F` [Example 427, 2-[6-(2-Fluoro-3-methyl-phenyl)-3-methyl-2-oxo-imidazo[4,5-b]pyridin-1-yl]-N,N-dimethyl-acetamide], the IC50 was 0.041 µM.
`CN(C)C(=O)Cn1c(=O)n(C)c2ncc(-c3cc(F)cc(F)c3)cc21` [Example 428, 2-[6-(3,5-Difluorophenyl)-3-methyl-2-oxo-imidazo[4,5-b]pyridin-1-yl]-N,N-dimethyl-acetamide] showed an IC50 of 0.126 µM.
`CN(C)C(=O)Cn1c(=O)n(C)c2ncc(-c3cccnc3)cc21` [Example 429, N,N-Dimethyl-2-[3-methyl-2-oxo-6-(3-pyridyl)imidazo[4,5-b]pyridin-1-yl]acetamide] was tested, and the IC50 was over 10 µM.
With `Cn1c(=O)n(CC(=O)N2CC(F)(F)C2)c2cc(-c3ccc(C(F)(F)F)s3)cnc21` [Example 430, 1-[2-(3,3-Difluoroazetidin-1-yl)-2-oxo-ethyl]-3-methyl-6-[5-(trifluoromethyl)-2-thienyl]imidazo[4,5-b]pyridin-2-one] the IC50 was 0.028 µM.
